How the values were obtained:
barley microspores = assay: Embryo induction and regeneration following pretreatment of barley genotypes; type: cell-based; details: for % embryoid Regeneration: 500 embryos per plate; for Embryoids: average from 3 plates
Protocol: Embryogenesis from thirty different barley genotypes was conducted according to the procedure in accordance with the present invention. Between 10,000 to 15,000 embryos were usually produced per plate. Table 2 illustrates some counts of embryos based on an average of three replications (plates). Not all thirty genotypes were counted. However, response of each genotype was judged on the basis of the appearance of plates after two weeks and again after 4 to 5 weeks. Random samples of 500 embryos were taken from the counted plates and placed on regeneration media to estimate the embryo regeneration ability. […] FIG. 4 illustrates barley c.v. Igri embryo development at 3 weeks (FIG. 4(a)) and 5 weeks (FIG. 4(b)) on filter paper placed on solidified induction media.
Three different pre-treatments were compared within the genotype Igri and no apparent differences were observed relative to embryo induction or regeneration (Table 2). Lina normally responds well in microspore culture following a mannitol pre-treatment, but in this study using the combination of cold plus mannitol for 7 days, response was low. Thus, embryo formation was also counted in Lina when a 21 day cold pretreatment had been used and this response was more typical of Lina (Table 2). The regeneration response from the two pretreatment methods on Lina was similar. The frequency of fertile doubled haploids among the Lina progeny following the two pretreatments was not different, namely 79% after the combination 7-day treatment and 83% after the 21 day cold pretreatment.
Embryogenesis was visually assessed in barley winter genotypes; OAC Elmira, GBC776, GBC779, GBC780 and GBC781, and spring genotypes, Trinity, Cooper, Golden Promise, Disa, Morex, Excel, Elrose, Bruce, Rodeo, H936 and Sabarilis. […] Under these conditions about 2,000 plants per 10^5 microspores, or about 200 plants per spike on responsive genotypes has been observed.

[1] = tested on: barley genotype Igri microspores; assay: Effect of duration of pretreatment on embryo formation; type: cell-based
Protocol: The effect of the duration of pre-treatment on embryogenesis from barley genotype Igri for spikes incubated with 0.3 mol/L mannitol at 4° C. Table 3 illustrates that as few as 4 days of pre-treatment drastically effects the number of embryos formed from microspores. Although the number formed increases up to 28 days of pre-treatment, only a 4 day period is required to achieve beneficial effects. […] However, duration of pre-treatment did appear to effect Oxbow as previously mentioned, and as illustrated in Table 2.

[2] = GBC 777, pretreatment 4 d 0.3M man. 4° C.
[3] = GBC 778, pretreatment 4 d 3.3M man. 4° C.
[4] = Harrington, pretreatment 3 d 0.3M man. 4° C.
[5] = Igri, pretreatment 4 d 0.3M man. 4° C.
[6] = Igri, pretreatment 4 d 0.3M man. 25° C.
[7] = Lina, pretreatment 7 d 0.3M man 4° C.
[8] = Manley, pretreatment 4 d 0.3M man. 4° C.
[9] = Oxbow, pretreatment 21 d 0.3M man. 4° C.
[10] = cold plus mannitol pre-treatment 3 to 4 days, 0.3 mol/liter mannitol at 4° C., responsive genotypes

## OC[C@@H](O)[C@@H](O)[C@H](O)[C@H](O)CO [mannitol]
Barley microspores; [2]
  % embryoid Regeneration: 89%
  Embryoids: 14133
Barley microspores; [3]
  % embryoid Regeneration: 84%
  Embryoids: 7667
Barley microspores; GBC 782, pretreatment 3 d 0.3M man. 4° C.
  Embryoids: 14496
Barley microspores; GBC 783, pretreatment 3 d 0.3M man. 4° C.
  Embryoids: 11360
Barley microspores; [4]
  % embryoid Regeneration: 36%
  Embryoids: 5533
Barley microspores; [5]
  % embryoid Regeneration: 97%
  Embryoids: 12380
Barley microspores; [6]
  % embryoid Regeneration: 88%
  Embryoids: 13504
Barley microspores; Lina, combination of cold plus mannitol for 7 days
  frequency of fertile doubled haploids among the Lina progeny: 79%
Barley microspores; [7]
  % embryoid Regeneration: 81%
  Embryoids: 8921
Barley microspores; [8]
  % embryoid Regeneration: 74%
  Embryoids: 11360
Barley microspores; [9]
  % embryoid Regeneration: 58%
  Embryoids: 10810
Barley microspores; [10]
  plants per 10^5 microspores: about 2,000 plants per 10^5 microspores
  plants per spike: about 200 plants per spike
[1]; 4 d pretreatment of spikes at 4° C. in 0.3 mol/liter mannitol
  # Embryos formed: 9579
[1]; 7 d pretreatment of spikes at 4° C. in 0.3 mol/liter mannitol
  # Embryos formed: 9693
[1]; 14 d pretreatment of spikes at 4° C. in 0.3 mol/liter mannitol
  # Embryos formed: 8981
[1]; 21 d pretreatment of spikes at 4° C. in 0.3 mol/liter mannitol
  # Embryos formed: 9692
[1]; 28 d pretreatment of spikes at 4° C. in 0.3 mol/liter mannitol
  # Embryos formed: 10213
